The source of these data is PubChem BioAssay (NCI).

Molecules are shown by their SMILES.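 Values below derive from 48-hour exposures of cells grown in 96-well plates, with endpoints linearly interpolated between the two concentrations bracketing the appropriate inhibition level. GI50 is the concentration that inhibits growth by half. TGI denotes the concentration required for complete inhibition of growth.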

Some test systems named below: MDA-MB-231 breast; NCI-H23 lung; SK-MEL-5 melanoma; SN12C renal; SK-OV-3 ovarian; A549 NSCLC; PC-3 prostate; TK-10 renal; BT-549 breast; SK-MEL-28 melanoma.
Common to all, as to assay: NCI-60 cell line screen, 48 h

Take `C[C@@H]1CC[C@H]2C(COC/C=C/COCC3=C(C(F)(F)F)O[C@@H]4O[C@@]5(C)CC[C@H]6[C@H](C)CC[C@@H]3[C@@]46OO5)=C(C(F)(F)F)O[C@@H]3O[C@@]4(C)CC[C@@H]1[C@]32OO4`: the GI50 in the assay with MDA-MB-231 breast is less than 41.6 nM; in the assay with NCI-H23 lung it was less than 17.8 nM; with SK-MEL-5 melanoma it was 86.6 nM; in the assay on SN12C renal, 19.1 nM; in the assay with SK-OV-3 ovarian, greater than 100 µM; with A549 NSCLC it was less than 13.8 nM. In addition, the GI50 was less than 10 nM in the assay on PC-3 prostate, 36 nM in the assay with TK-10 renal, 64.4 nM in the assay on BT-549 breast and 63.9 µM in the assay with SK-MEL-28 melanoma. The TGI with MDA-MB-231 breast was 865 nM; with NCI-H23 lung, 12.3 µM; in the assay with SK-MEL-5 melanoma it was greater than 100 µM; in the assay on SN12C renal, 685 nM; in the assay on SK-OV-3 ovarian, greater than 100 µM; with A549 NSCLC, greater than 50.1 µM. Besides, the TGI in the assay on TK-10 renal, in the assay with BT-549 breast and in the assay with SK-MEL-28 melanoma was greater than 100 µM throughout.
